In ChEMBL document CHEMBL1909046, “DrugMatrix in vitro pharmacology data”:

Legend:
[1] = DRUGMATRIX: GABAA, Muscimol, Central radioligand binding (ligand: [3H] Muscimol); assay type: cell membranes, Rattus norvegicus, Wistar, Brain, Membrane; settings: Not Active = under 50% inhibition at 10 µM
[2] = DRUGMATRIX: Imidazoline I2, Central radioligand binding (ligand: [3H] Idazoxan); assay type: cell membranes, Rattus norvegicus, Wistar, Cerebral cortex, Membrane; settings: Not Active = under 50% inhibition at 10 µM
[3] = DRUGMATRIX: Glutamate, AMPA radioligand binding (ligand: [3H] AMPA); assay type: cell membranes, Rattus norvegicus, Wistar, Cerebral cortex, Membrane; settings: Not Active = under 50% inhibition at 10 µM
[4] = target: Mitogen-activated protein kinase 3 (Homo sapiens, UniProt P27361); assay: DRUGMATRIX: Protein Serine/Threonine Kinase, ERK1 enzyme inhibition (substrate: Myelin Basic Protein); parameters: species or system Escherichia coli; settings: Not Active = under 50% inhibition at 10 µM
Sequence of Mitogen-activated protein kinase 3 (P27361 whole entry): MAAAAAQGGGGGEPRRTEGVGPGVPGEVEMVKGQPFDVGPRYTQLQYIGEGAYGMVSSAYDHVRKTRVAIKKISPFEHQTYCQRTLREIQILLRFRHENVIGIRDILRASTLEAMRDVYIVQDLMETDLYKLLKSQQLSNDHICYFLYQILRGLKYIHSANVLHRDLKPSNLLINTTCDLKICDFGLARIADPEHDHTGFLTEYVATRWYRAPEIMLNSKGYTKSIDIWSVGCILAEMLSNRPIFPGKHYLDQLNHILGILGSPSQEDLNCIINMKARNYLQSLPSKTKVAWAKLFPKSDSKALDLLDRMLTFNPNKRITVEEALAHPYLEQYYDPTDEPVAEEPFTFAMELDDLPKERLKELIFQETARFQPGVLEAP

D(1A) dopamine receptor = D(1A) dopamine receptor (Homo sapiens, UniProt P21728); assay: DRUGMATRIX: Dopamine D1 radioligand binding (ligand: [3H] SCH-23390); assay type: cell membranes, CHO, Membrane; settings: cho; Not Active = under 50% inhibition at 10 µM
Sequence of D(1A) dopamine receptor (P21728 whole entry): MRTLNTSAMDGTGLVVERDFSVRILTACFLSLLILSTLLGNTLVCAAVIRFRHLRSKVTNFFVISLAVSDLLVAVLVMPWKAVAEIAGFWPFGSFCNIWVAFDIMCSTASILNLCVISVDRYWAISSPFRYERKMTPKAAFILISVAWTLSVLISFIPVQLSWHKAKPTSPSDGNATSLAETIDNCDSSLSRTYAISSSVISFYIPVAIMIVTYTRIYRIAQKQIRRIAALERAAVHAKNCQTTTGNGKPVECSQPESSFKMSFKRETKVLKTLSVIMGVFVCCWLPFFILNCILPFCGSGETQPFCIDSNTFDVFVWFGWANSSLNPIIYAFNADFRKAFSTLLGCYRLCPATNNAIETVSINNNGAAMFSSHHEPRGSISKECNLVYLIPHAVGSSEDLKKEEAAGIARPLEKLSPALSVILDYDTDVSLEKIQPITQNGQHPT

[5] = DRUGMATRIX: Phorbol Ester radioligand binding (ligand: [3H] PDBu); assay type: cell membranes, Mus musculus, ICR, Brain, Membrane; settings: Not Active = under 50% inhibition at 10 µM
[6] = target: T1, Amine oxidase [flavin-containing] A (Homo sapiens, UniProt P21397); assay: DRUGMATRIX: Monoamine Oxidase MAO-A enzyme inhibition (substrate: Kynuramine); parameters: species or system BTI-TN-5B1-4; settings: bti-tn-5b1-4; Not Active = under 50% inhibition at 10 µM
T1 sequence (P21397 whole entry): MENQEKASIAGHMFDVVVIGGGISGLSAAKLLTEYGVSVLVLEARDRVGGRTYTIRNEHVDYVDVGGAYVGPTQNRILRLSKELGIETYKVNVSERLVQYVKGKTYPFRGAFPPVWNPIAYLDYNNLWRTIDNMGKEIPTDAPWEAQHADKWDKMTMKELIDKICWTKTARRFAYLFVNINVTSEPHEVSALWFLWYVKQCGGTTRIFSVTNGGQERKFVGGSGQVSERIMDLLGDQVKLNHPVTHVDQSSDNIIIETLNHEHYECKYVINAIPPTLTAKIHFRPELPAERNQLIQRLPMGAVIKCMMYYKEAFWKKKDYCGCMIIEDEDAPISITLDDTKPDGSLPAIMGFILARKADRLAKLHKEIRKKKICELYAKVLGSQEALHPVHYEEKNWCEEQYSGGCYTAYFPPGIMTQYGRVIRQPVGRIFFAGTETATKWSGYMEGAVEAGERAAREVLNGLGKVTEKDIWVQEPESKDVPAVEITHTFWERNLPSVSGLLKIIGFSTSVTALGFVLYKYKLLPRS

SMILES	IC50 [1]	Ki [1]	IC50 [2]	Ki [2]	IC50 [3]	Ki [3]	IC50 [4]	IC50 (D(1A) dopamine receptor)	IC50 [5]	Ki [5]	IC50 [6]	IC50 ([4]; read-out: IC50) [µM]
OC[C@H]1O[C@@H]2O[C@H]3[C@H](O)[C@@H](O)[C@@H](O[C@H]4[C@H](O)[C@@H](O)[C@@H](O[C@H]5[C@H](O)[C@@H](O)[C@@H](O[C@H]6[C@H](O)[C@@H](O)[C@@H](O[C@H]7[C@H](O)[C@@H](O)[C@@H](O[C@H]8[C@H](O)[C@@H](O)[C@@H](O[C@H]1[C@H](O)[C@H]2O)O[C@@H]8CO)O[C@@H]7CO)O[C@@H]6CO)O[C@@H]5CO)O[C@@H]4CO)O[C@@H]3CO [BETADEX]	Not Active	Not Active	Not Active	Not Active	Not Active	Not Active	Not Active	Not Active	Not Active	Not Active	Not Active	
c1ccc(Cn2ccnc2)cc1	Not Active	Not Active	Not Active	Not Active	Not Active	Not Active	Not Active	Not Active	Not Active	Not Active	Not Active	
C=CCN1CC[C@]23c4c5ccc(O)c4O[C@H]2/C(=N/N=C2\CC[C@@]4(O)[C@H]6Cc7ccc(O)c8c7[C@@]4(CCN6CC=C)[C@H]2O8)CC[C@@]3(O)[C@H]1C5 [NALOXONAZINE]	Not Active	Not Active	Not Active	Not Active	Not Active	Not Active	Not Active	Not Active	Not Active	Not Active	Not Active	
CCCCCCNC(=O)n1cc(F)c(=O)[nH]c1=O [CARMOFUR]	Not Active	Not Active	Not Active	Not Active	Not Active	Not Active		Not Active	Not Active	Not Active	Not Active	6.12
OC[C@H]1O[C@@H]2O[C@H]3[C@H](O)[C@@H](O)[C@@H](O[C@H]4[C@H](O)[C@@H](O)[C@@H](O[C@H]5[C@H](O)[C@@H](O)[C@@H](O[C@H]6[C@H](O)[C@@H](O)[C@@H](O[C@H]7[C@H](O)[C@@H](O)[C@@H](O[C@H]1[C@H](O)[C@H]2O)O[C@@H]7CO)O[C@@H]6CO)O[C@@H]5CO)O[C@@H]4CO)O[C@@H]3CO [ALFADEX]	Not Active	Not Active	Not Active	Not Active	Not Active	Not Active	Not Active	Not Active	Not Active	Not Active	Not Active	
CC(C)NCC(O)COc1ccc(CC(N)=O)cc1 (stereo unspecified) [ATENOLOL]	Not Active	Not Active	Not Active	Not Active	Not Active	Not Active	Not Active	Not Active	Not Active	Not Active	Not Active	
